Reference: paper PMC6273592, “Catalytic Synthesis of a New Series of Alkyl Uronates and Evaluation of Their Physicochemical Properties” (Molecules, 2016)
Converted amounts (≈) assume the structure as drawn. “And” between values parts separate entries of the source, which are not always exact repeats. Identical values can stand only once. “Also recorded” adds a separate entry of the source. Like-named read-outs stand apart in the source and are kept apart here.

Tests used:
[1] = Equilibrium surface tension at the air-aqueous solution interface (Wilhelmy plate); assay type: physicochemical; conditions: water; for Amin (minimal area per molecule at air-aqueous solution interface): calculated from Gibbs equation
Procedure: The surface activity of the synthesized molecules was studied mainly in terms of their adsorption behavior on the air-aqueous solution interface. The equilibrium surface tensions γ were measured by means of a Wilhelmy plate using a K100 Processor Tensiometer (KRUSS, Hamburg, Germany). The equilibrium surface tension γ was plotted as a function of the log concentration for all molecules, from which we can derive various parameters, like critical micellar concentration (CMC) extrapolated from the break in the surface tension curve and surface tension at the CMC (γcmc). The surface excess (Γmax) and minimal area per molecule at air-aqueous solution interface (Amin) can be calculated from Gibbs equation for non-ionic surfactants: (2) Гmax=−1/2.303RT(dγ/dlogc) and (3) Amin=10^20/NAГmax where R is the ideal gas constant (8.31 J·mol^−1K^−1)’ T is the measuring temperature (K); γ is the surface tension (N·m^−1), c is the concentration (mol·L^−1); Amin is the minimal area per molecule (Å^2); and NA is Avogadro′s number (6.02 × 10^23 mol^−1).
For each molecule, a series of solutions of different concentrations were prepared well above its Krafft Point, either at room temperature of about 25 °C or at 50 °C, under agitation in a water bath for 30 min. Measurements were carried out for each concentration, either at 25 °C for molecules with a Tk below room temperature, or at T > Tk for those with higher Tk values than 25 °C. The standard deviation for temperature is 1 °C.

[2] = Krafft temperature (Tk) by differential scanning calorimetry; assay type: physicochemical; conditions: DSC, aqueous mixture 10% (w/w), heating scan 4 °C to 65 °C, onset of endothermic signal
Procedure: (§1) For each molecule, several samples in 1–2 mL deionized water with various concentrations (between 0.01 mM and 100 mM) were prepared by homogenizing at 500 rpm with a standard magnetic hotplate stirrer MR 3001K (Heidolph Instruments, Schwabach, Germany) for 30 min. The soluble or insoluble character was estimated on the aspect change of corresponding dispersion systems. The concentration limit to obtain an apparently clear solution was noted [C]max. […] This allows the examination of the temperature-driven solubilization behavior and verifies the presence of the Krafft point (Tk), above which the surfactant solubility in water increases abruptly. At Tk, solubility of the surfactant reaches its critical micelle concentration (CMC). In other words, Tk represents the critical temperature at which the micellization process occurs with the dissolution of hydrated surfactant crystals. Thus, Tk can be precisely determined by differential scanning calorimetry (DSC), which has already been proposed by some authors. All of the measurements were performed with a commercial µDSC7 evo calorimeter (SETARAM Instrumentation, Caluire, France). For each molecule, a sample with a concentrated aqueous mixture of 10% (w/w) molecule (C >> CMC) was prepared at 50 °C under magnetic agitation for 30 min to obtain a homogeneous and clear dispersion. These dispersions were then put into a refrigerator at 4 °C for a period over a week, permitting potential phase transitions, including the formation of equilibrated hydrated crystals. Samples of about 300 mg were introduced in the calorimeter cell and equilibrated at 4 °C for 1 h. A heating scan from 4 °C to 65 °C at a rate of 0.5 °C/min was then performed. Tk were identified as the onset of the endothermic signal detected by DSC during the dissolution of hydrated crystals. Tk were calculated as an average of at least two measurements.

[3] = Aqueous solubility: concentration limit of apparently clear solution ([C]max) by visual observation; assay type: physicochemical; conditions: for solubility at 30 min: deionized water
Procedure: as §1

[4] = cited from earlier work
[5] = room temperature of about 25 °C, visual observation

CMC ([1]; 25 °C) [mM] | γcmc (surface tension at the CMC) ([1]; 25 °C) [mN·m^−1] | Amin (minimal area per molecule at air-aqueous solution interface) ([1]; 25 °C) [Å^2/molecule] | Tk (Krafft Temperature) [2] | solubility at 30 min [3, 5] [µM] | [C]max ([3]; water, 25 °C (Table 2)) [mM] | Compound | CMC [4] [mM] | further results
6.0 ± 0.5 | 29.2 ± 0.4 | 41.0 ± 1 | no signal; also recorded: undetected | ≥ 20000 | 15 to 20 | CCCCCCCCOC(=O)[C@H]1O[C@H](OC)[C@H](O)[C@@H](O)[C@@H]1O [3d, Octyl (methyl α-D-glucopyranosid)uronate] | – | –
0.65 ± 0.05 | 28.1 ± 0.1 | 42.4 ± 2 | undetected | 500 to 750 (≈ 174 to 261 µg/mL) | 0.5 to 0.75 | CCCCCCCCCCOC(=O)[C@H]1O[C@H](OC)[C@H](O)[C@@H](O)[C@@H]1O [3e, Decyl (methyl α-D-glucopyranosid)uronate] | – | –
0.056 ± 0.004 | 28.3 ± 0.3 | 45.6 ± 5 | 22 ± 0.2 °C | ≥ 30 | 0.03 to 0.05 | CCCCCCCCCCCCOC(=O)[C@H]1O[C@H](OC)[C@H](O)[C@@H](O)[C@@H]1O [3f, Dodecyl (methyl α-D-glucopyranosid)uronate] | – | –
– | – | – | 31 ± 0.9 °C | – | – | CCCCCCCCOC(=O)[C@H]1O[C@@H](OC)[C@H](O)[C@@H](O)[C@H]1O [compound 5, Octyl (methyl β-D-galactopyranosid)uronate] | – | CMC ([1]; 40 °C): 6.9 ± 0.4 mM; γcmc (surface tension at the CMC) ([1]; 40 °C): 29.4 ± 0.36 mN·m^−1 and 29.4 ± 0.4 mN·m^−1; Amin (minimal area per molecule at air-aqueous solution interface) ([1]; 40 °C): 42.9 ± 3.9 Å^2/molecule; [C]max ([3]; water, 40 °C (Table 2)): >100 mM; [C]max at T > Tk ([3]; water, above Krafft temperature (31 °C)): > 100 mM; [C]max at ≈25 °C (concentration limit of apparently clear solution) ([3]; water, room temperature of about 25 °C, visual observation): insoluble
5.5 ± 0.5 | 28.3 ± 0.3 | 42.8 ± 2 | no signal; also recorded: undetected | ≥ 5000 | 5.0 to 6.2 | CCCCCCCCOC(=O)C1OC(OC)C(O)C(O)C1O [compound 7, Octyl (methyl α-D-mannopyranosid)uronate] | – | –

The remaining lines, values behind:

Compound | CMC ([1]; 25 °C) [mM] | γcmc (surface tension at the CMC) ([1]; 25 °C) [mN·m^−1] | Amin (minimal area per molecule at air-aqueous solution interface) ([1]; 25 °C) [Å^2/molecule] | Tk (Krafft Temperature) [2] | solubility at 30 min [3, 5] [µM] | [C]max ([3]; water, 25 °C (Table 2)) [mM] | CMC [4] [mM] | further results
CCCCCCOC(=O)[C@H]1O[C@H](OC)[C@H](O)[C@@H](O)[C@@H]1O [3c, Hexyl (methyl α-D-glucopyranosid)uronate] | 55 ± 5 | 30.8 ± 0.8 | 39.2 ± 2.9 | undetected | ≥ 50000 | 50 to 60 | – | –
polyethylene glycol tert-octylphenyl ether [Triton X-100] | – | – | – | – | – | – | 0.23 to 0.24 | –
polyoxyethylene (23) lauryl ether [Brij 35] | – | – | – | – | – | – | 0.03 to 0.09 | –
polyoxyethylene sorbitan monolaurate [Tween 20] | – | – | – | – | – | – | 0.050 to 0.059 | –
